Source: ChEMBL document CHEMBL4507274 (2021)

Legend:
Settings in all cases: Compound concentration 100.0 nM
[1] = target: Ephrin type-A receptor 4 (Homo sapiens) (UniProt P54764)
[2] = target: Citron Rho-interacting kinase (Homo sapiens) (UniProt O14578)
[3] = target: Insulin receptor (Homo sapiens) (UniProt P06213)
[4] = target: Cyclin-dependent kinase 9 (Homo sapiens) (UniProt P50750)
[5] = target: Mitogen-activated protein kinase kinase kinase 1 (Homo sapiens) (UniProt Q13233)
[6] = target: Casein kinase I isoform delta (Homo sapiens) (UniProt P48730)
[7] = target: TGF-beta receptor type-1 (Homo sapiens) (UniProt P36897)
[8] = target: Cyclin-dependent kinase 8 (Homo sapiens) (UniProt P49336)
[9] = target: T1, Serine/threonine-protein kinase Chk1 (Homo sapiens) (UniProt O14757)
T1 sequence (whole entry): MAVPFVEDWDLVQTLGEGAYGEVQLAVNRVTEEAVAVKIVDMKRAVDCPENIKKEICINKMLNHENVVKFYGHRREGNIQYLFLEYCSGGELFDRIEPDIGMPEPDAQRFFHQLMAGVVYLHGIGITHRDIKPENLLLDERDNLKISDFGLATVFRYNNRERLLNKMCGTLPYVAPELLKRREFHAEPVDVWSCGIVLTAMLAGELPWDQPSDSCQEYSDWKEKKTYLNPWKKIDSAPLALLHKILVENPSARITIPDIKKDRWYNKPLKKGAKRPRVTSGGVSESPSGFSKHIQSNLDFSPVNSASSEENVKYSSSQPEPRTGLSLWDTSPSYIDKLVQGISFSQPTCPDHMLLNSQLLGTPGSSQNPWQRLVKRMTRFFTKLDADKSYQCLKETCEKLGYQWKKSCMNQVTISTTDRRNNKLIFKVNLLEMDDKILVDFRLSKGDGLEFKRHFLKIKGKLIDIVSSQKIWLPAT

[10] = target: Serine/threonine-protein kinase MRCK beta (Homo sapiens) (UniProt Q9Y5S2)
[11] = target: Cyclin-dependent kinase 16 (Homo sapiens) (UniProt Q00536)
[12] = target: Casein kinase I isoform gamma-1 (Homo sapiens) (UniProt Q9HCP0)
[13] = target: Serine/threonine-protein kinase TNNI3K (Homo sapiens) (UniProt Q59H18)
[14] = target: Eukaryotic translation initiation factor 2-alpha kinase 1 (Homo sapiens) (UniProt Q9BQI3)
[15] = target: T2, Serine/threonine-protein kinase D1 (Homo sapiens) (UniProt Q15139)
T2 sequence (whole entry): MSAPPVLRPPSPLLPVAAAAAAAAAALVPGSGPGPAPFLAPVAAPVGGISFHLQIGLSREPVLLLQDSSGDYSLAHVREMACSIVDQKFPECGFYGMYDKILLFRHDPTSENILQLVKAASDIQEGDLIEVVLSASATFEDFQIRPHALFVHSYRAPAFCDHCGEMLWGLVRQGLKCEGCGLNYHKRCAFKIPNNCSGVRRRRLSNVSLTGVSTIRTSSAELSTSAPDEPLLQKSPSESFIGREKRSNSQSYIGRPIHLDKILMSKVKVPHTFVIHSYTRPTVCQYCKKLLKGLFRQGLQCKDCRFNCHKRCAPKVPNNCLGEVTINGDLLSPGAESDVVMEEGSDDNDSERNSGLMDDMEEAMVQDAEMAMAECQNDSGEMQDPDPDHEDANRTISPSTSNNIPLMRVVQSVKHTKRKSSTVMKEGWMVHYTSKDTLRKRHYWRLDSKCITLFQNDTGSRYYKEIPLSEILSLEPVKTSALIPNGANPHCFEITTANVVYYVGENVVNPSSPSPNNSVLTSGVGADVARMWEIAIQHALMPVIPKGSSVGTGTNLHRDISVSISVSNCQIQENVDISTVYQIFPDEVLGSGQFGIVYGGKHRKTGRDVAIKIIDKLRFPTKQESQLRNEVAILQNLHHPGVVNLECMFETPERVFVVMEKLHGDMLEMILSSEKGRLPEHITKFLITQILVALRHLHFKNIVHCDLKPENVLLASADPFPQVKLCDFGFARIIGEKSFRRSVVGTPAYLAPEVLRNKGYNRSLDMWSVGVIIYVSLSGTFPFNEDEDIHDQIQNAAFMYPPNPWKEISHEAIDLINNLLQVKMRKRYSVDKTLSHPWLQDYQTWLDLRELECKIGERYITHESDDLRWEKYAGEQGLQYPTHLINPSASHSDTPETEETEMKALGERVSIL

[16] = target: Casein kinase I isoform alpha-like (Homo sapiens) (UniProt Q8N752)
[17] = system: Mast/stem cell growth factor receptor Kit (Homo sapiens), P10721 [V559D,T670I]
[18] = target: Dual specificity mitogen-activated protein kinase kinase 5 (Homo sapiens) (UniProt Q13163)
[19] = target: Mitogen-activated protein kinase kinase kinase kinase 5 (Homo sapiens) (UniProt Q9Y4K4)
[20] = target: Vascular endothelial growth factor receptor 1 (Homo sapiens) (UniProt P17948)
[21] = target: Platelet-derived growth factor receptor beta (Homo sapiens) (UniProt P09619)
[22] = target: Serine/threonine-protein kinase BRSK2 (Homo sapiens) (UniProt Q8IWQ3)
[23] = system: Tyrosine-protein kinase ABL1 (Homo sapiens), P00519 [H396P]
[24] = target: Vascular endothelial growth factor receptor 3 (Homo sapiens) (UniProt P35916)
[25] = system: Tyrosine-protein kinase ABL1 (Homo sapiens), P00519 [T315I]

Measured: residual activity

Chain of Eukaryotic translation initiation factor 2-alpha kinase 1 (Homo sapiens) (Q9BQI3 whole entry): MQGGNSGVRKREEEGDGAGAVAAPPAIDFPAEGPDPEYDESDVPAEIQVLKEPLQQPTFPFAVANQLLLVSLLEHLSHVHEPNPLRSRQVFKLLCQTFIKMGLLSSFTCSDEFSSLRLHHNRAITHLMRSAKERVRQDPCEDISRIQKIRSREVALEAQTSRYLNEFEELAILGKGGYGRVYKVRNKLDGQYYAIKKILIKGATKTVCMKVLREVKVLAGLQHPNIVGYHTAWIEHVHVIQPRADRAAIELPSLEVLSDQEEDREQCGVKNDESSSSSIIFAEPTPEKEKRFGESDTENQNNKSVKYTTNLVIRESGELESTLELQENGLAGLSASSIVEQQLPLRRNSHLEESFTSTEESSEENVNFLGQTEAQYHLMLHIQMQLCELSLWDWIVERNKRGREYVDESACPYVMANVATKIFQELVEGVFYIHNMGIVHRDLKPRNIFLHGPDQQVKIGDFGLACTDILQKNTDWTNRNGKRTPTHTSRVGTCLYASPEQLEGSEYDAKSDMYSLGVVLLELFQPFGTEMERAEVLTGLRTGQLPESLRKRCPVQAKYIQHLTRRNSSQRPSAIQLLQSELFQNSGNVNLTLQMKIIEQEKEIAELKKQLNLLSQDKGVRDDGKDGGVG
Chain of Vascular endothelial growth factor receptor 1 (Homo sapiens) (P17948 whole entry): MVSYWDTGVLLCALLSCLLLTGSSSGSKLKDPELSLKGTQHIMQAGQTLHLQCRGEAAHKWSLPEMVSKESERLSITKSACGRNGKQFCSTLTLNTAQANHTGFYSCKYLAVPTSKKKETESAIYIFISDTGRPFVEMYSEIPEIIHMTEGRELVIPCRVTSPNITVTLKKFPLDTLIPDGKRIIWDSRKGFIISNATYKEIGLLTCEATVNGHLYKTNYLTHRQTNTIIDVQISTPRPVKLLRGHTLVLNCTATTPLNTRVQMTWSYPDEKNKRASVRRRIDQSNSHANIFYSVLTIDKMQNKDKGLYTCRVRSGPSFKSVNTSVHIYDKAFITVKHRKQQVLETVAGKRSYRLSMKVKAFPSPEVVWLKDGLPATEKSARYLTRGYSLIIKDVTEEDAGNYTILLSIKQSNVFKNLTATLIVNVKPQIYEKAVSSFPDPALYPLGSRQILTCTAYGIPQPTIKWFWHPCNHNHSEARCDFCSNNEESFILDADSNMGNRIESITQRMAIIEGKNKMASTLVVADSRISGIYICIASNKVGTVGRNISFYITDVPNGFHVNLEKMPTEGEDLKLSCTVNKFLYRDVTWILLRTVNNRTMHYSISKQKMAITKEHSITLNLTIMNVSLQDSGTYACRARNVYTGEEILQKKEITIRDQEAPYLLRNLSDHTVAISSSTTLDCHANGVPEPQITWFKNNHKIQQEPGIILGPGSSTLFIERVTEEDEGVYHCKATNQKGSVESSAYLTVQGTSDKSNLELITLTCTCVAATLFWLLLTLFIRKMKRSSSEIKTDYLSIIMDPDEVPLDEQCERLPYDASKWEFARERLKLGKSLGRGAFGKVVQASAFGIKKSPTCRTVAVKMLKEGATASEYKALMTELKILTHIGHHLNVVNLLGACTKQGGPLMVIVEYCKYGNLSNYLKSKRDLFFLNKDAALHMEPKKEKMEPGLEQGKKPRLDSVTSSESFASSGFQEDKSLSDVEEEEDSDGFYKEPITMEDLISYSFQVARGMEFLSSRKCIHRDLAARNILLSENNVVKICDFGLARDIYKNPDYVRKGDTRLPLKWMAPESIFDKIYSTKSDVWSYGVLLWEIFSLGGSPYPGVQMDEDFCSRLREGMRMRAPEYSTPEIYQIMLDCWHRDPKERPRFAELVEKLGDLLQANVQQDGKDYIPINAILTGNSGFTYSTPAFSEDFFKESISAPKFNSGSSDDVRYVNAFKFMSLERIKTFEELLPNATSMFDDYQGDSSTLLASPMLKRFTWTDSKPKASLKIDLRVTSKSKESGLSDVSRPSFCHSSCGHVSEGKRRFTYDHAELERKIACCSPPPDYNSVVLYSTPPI
Chain of Cyclin-dependent kinase 8 (Homo sapiens) (P49336 whole entry): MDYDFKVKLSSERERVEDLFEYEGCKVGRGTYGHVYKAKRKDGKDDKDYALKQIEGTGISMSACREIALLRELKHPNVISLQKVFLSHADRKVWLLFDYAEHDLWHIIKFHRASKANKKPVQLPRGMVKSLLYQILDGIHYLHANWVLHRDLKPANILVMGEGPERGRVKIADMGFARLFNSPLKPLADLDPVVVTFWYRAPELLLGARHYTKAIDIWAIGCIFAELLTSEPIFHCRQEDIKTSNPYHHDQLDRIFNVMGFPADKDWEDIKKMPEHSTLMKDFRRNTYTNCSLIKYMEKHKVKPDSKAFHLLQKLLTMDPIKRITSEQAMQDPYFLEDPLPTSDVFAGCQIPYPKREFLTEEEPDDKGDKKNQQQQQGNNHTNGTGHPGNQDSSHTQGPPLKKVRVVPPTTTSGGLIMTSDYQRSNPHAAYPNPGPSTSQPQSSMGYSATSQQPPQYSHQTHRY
Chain of Serine/threonine-protein kinase TNNI3K (Homo sapiens) (Q59H18 whole entry): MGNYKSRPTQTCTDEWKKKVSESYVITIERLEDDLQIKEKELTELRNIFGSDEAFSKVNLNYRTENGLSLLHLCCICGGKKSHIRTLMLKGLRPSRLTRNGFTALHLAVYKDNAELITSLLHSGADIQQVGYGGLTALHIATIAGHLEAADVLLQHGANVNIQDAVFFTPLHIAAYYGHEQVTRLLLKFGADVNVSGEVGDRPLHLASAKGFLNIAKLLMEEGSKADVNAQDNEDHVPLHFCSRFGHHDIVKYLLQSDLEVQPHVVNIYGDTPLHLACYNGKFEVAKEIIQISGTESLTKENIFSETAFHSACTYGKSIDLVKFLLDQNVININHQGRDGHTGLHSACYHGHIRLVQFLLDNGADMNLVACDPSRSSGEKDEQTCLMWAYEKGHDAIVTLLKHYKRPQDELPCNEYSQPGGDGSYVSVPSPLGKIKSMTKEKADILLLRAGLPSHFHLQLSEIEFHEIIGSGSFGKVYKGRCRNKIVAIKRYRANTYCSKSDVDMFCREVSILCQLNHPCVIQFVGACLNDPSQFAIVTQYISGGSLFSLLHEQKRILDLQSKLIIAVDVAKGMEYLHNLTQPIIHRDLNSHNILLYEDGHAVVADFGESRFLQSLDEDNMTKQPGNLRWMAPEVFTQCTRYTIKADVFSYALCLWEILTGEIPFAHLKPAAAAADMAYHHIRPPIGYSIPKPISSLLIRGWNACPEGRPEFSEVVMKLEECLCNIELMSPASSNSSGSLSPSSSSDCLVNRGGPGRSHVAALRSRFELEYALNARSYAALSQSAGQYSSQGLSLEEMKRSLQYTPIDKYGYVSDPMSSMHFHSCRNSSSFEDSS
Chain of Dual specificity mitogen-activated protein kinase kinase 5 (Homo sapiens) (Q13163 whole entry): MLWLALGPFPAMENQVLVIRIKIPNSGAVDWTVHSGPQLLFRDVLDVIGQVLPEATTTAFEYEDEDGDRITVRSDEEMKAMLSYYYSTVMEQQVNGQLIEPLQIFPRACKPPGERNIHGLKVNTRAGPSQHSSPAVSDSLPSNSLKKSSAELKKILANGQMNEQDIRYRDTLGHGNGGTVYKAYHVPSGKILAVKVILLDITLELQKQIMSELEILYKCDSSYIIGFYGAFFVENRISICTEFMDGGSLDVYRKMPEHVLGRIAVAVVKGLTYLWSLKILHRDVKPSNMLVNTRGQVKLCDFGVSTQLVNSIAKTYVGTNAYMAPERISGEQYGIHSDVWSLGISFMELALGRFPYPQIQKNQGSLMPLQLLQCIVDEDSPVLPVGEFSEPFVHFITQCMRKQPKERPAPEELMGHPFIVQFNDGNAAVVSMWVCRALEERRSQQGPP
Chain of Platelet-derived growth factor receptor beta (Homo sapiens) (P09619 whole entry): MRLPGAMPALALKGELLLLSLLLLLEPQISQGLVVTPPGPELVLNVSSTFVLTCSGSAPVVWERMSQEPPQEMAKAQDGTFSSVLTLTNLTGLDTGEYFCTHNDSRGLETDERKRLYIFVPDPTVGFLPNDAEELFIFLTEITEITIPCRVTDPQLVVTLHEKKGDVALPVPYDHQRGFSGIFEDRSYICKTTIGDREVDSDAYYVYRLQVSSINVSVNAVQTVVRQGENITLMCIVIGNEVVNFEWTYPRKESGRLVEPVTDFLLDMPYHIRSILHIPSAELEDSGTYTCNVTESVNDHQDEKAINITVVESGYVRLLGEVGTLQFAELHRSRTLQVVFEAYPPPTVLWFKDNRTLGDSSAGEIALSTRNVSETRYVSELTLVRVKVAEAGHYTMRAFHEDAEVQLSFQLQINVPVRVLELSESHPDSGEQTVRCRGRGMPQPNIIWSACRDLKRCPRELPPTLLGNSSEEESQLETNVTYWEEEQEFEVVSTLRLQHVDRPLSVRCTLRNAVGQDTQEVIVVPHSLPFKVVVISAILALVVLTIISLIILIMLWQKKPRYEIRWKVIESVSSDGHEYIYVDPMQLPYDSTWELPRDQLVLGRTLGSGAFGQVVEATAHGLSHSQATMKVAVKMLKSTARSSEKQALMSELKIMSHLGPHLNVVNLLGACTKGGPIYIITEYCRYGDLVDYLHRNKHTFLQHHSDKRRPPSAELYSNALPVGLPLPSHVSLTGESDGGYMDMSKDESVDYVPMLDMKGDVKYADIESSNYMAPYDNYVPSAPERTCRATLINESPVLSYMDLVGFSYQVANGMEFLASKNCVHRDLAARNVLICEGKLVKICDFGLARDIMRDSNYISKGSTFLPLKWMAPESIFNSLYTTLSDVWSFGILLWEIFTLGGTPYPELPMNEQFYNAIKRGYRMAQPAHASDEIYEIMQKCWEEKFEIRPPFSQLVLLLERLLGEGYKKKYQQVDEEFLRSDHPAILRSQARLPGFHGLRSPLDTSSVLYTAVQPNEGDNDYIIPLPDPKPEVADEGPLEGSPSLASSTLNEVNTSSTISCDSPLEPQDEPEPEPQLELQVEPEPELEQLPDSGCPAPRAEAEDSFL

Cc1c[nH]c2nccc(Oc3c(F)cc(Nc4cc(Cl)nc(N)n4)cc3F)c12 [BAY-549]
inactive: [1] 100% | [2] 100% | [3] 80% | [4] 78% | [5] 82% | [6] 100% | [7] 81% | [8] 69% | [9] 100% | [10] 70% | [11] 99% | [12] 100% | [13] 98% | [14] 77% | [15] 55% | [16] 89% | [17] 83% | [18] 82% | [19] 93% | [20] 100% | [21] 83% | [22] 92% | [23] 95% | [24] 98% | [25] 80%

Cn1cc(Cl)c2c(Oc3c(F)cc(Nc4cc(Cl)nc(N)n4)cc3F)ccnc21 [BAY-4900]
inactive: [1] 100% | [2] 100% | [3] 90% | [4] 100% | [5] 76% | [6] 100% | [7] 93% | [8] 97% | [9] 100% | [10] 100% | [11] 100% | [12] 100% | [13] 78% | [14] 100% | [15] 74% | [16] 98% | [17] 91% | [18] 100% | [19] 91% | [20] 100% | [21] 96% | [22] 100% | [23] 95% | [24] 96% | [25] 84%
